According to ChEMBL document CHEMBL2434940, “Synthesis and antitumor activities of novel α-aminophosphonates dehydroabietic acid derivatives” (Bioorg Med Chem Lett, 2013):
The source made the active and inactive calls. The rule behind the calls is not given here.

Tests used:
NCI-H460 [1] = experiment: Cytotoxicity against human NCI-H460 cells after 48 hrs by MTT assay; type: functional, cell-based; conditions: NCI-H460, 48 h
A549 = experiment: Cytotoxicity against human A549 cells after 48 hrs by MTT assay; type: functional, cell-based; conditions: A549, 48 h
HepG2 = experiment: Cytotoxicity against human HepG2 cells after 48 hrs by MTT assay; type: functional, cell-based; conditions: HepG2, 48 h
SK-OV-3 = experiment: Cytotoxicity against human SKOV3 cells after 48 hrs by MTT assay; type: functional, cell-based; conditions: SK-OV-3, 48 h
NCI-H460 [2] = experiment: Cell cycle arrest in human NCI-H460 cells assessed as accumulation at S phase at IC50 by propidium iodide staining-based FACS flow cytometric analysis relative to control; type: functional
NCI-H460 [3] = experiment: Cell cycle arrest in human NCI-H460 cells assessed as accumulation at G2 phase at IC50 by propidium iodide staining-based FACS flow cytometric analysis relative to control; type: functional
NCI-H460 [4] = experiment: Cell cycle arrest in human NCI-H460 cells assessed as accumulation at G1 phase at IC50 by propidium iodide staining-based FACS flow cytometric analysis relative to control; type: functional
NCI-H460 [5] = experiment: Induction of apoptosis in human NCI-H460 cells assessed as early apoptotic cells at 45 uM after 24 hrs by Annexin V-FITC and propidium iodide staining-based FACS flow cytometric analysis (reference value: 1.5%); type: functional
NCI-H460 [6] = experiment: Induction of apoptosis in human NCI-H460 cells assessed as necrotic/late apoptotic cells at 45 uM after 24 hrs by Annexin V-FITC and propidium iodide staining-based FACS flow cytometric analysis (reference value: 0.8%); type: functional
NCI-H460 [7] = experiment: Induction of apoptosis in human NCI-H460 cells assessed as loss of mitochondria membrane potential at 45 uM after 24 hrs by JC-1 staining-based fluorescence microscopic analysis; type: functional, cell-based
NCI-H460 [8] = experiment: Induction of apoptosis in human NCI-H460 cells assessed as apoptotic ratio at 5 uM after 12 hrs by Annexin V-FITC and propidium iodide staining-based FACS flow cytometric analysis relative to control; type: functional
NCI-H460 [9] = experiment: Induction of apoptosis in human NCI-H460 cells assessed as apoptotic ratio at 3 uM after 12 hrs by Annexin V-FITC and propidium iodide staining-based FACS flow cytometric analysis relative to control; type: functional
NCI-H460 [10] = experiment: Induction of apoptosis in human NCI-H460 cells after 12 hrs by Annexin V-FITC and propidium iodide staining-based FACS flow cytometric analysis; type: functional, cell-based
NCI-H460 [11] = experiment: Induction of apoptosis in human NCI-H460 cells assessed as early apoptotic cells at 5 uM after 24 hrs by Annexin V-FITC and propidium iodide staining-based FACS flow cytometric analysis (reference value: 3.8%); type: functional
NCI-H460 [12] = experiment: Induction of apoptosis in human NCI-H460 cells assessed as necrotic/late apoptotic cells at 5 uM after 24 hrs by Annexin V-FITC and propidium iodide staining-based FACS flow cytometric analysis (reference value: 1.9%); type: functional
NCI-H460 [13] = experiment: Induction of apoptosis in human NCI-H460 cells assessed as early apoptotic cells at 5 uM after 12 hrs by Annexin V-FITC and propidium iodide staining-based FACS flow cytometric analysis (reference value: 3.8%); type: functional
NCI-H460 [14] = experiment: Induction of apoptosis in human NCI-H460 cells assessed as necrotic/late apoptotic cells at 5 uM after 12 hrs by Annexin V-FITC and propidium iodide staining-based FACS flow cytometric analysis (reference value: 1.9%); type: functional
NCI-H460 [15] = experiment: Induction of apoptosis in human NCI-H460 cells assessed as loss of mitochondria membrane potential at 5 uM after 12 to 24 hrs by JC-1 staining-based fluorescence microscopic analysis; type: functional, cell-based
NCI-H460 [16] = experiment: Induction of apoptosis in human NCI-H460 cells at 5 uM after 12 to 24 hrs by Hoechst 33258 staining-based fluorescence microscopic analysis; type: functional, cell-based
NCI-H460 [17] = experiment: Cytotoxicity against human NCI-H460 cells at 5 uM after 12 to 24 hrs by AO/EB staining-based fluorescence microscopic analysis; type: cell-based; conditions: nci-h460, 5 µM
NCI-H460 [18] = experiment: Induction of apoptosis in human NCI-H460 cells assessed as cell budding at 5 uM after 12 to 24 hrs by AO/EB staining-based fluorescence microscopic analysis; type: functional
NCI-H460 [19] = experiment: Induction of apoptosis in human NCI-H460 cells assessed as pycnosis at 5 uM after 12 to 24 hrs by AO/EB staining-based fluorescence microscopic analysis; type: functional, cell-based
NCI-H460 [20] = experiment: Induction of apoptosis in human NCI-H460 cells assessed as membrane blebbing at 5 uM after 12 to 24 hrs by AO/EB staining-based fluorescence microscopic analysis; type: functional, cell-based

Row | SMILES | IC50 (NCI-H460 [1]) [µM] | IC50 (A549) [µM] | IC50 (HepG2) [µM] | IC50 (SK-OV-3) [µM] | also measured
1 | CCOP(=O)(OCC)C(NC(=S)NC(=O)[C@]1(C)CCC[C@]2(C)c3ccc(C(C)C)cc3CC[C@@H]12)c1ccc(OC)cc1 (stereo partly specified) | 25 | 15.3 | 32.1 | 21.4 | 
2 | CCOP(=O)(OCC)C(NC(=S)NC(=O)[C@]1(C)CCC[C@]2(C)c3ccc(C(C)C)cc3CC[C@@H]12)c1ccc(C)cc1 (stereo partly specified) | 26.4 | 21.9 | 30 | 14.1 | 
3 | CCOP(=O)(OCC)C(NC(=S)NC(=O)[C@]1(C)CCC[C@]2(C)c3ccc(C(C)C)cc3CC[C@@H]12)c1cccc(Br)c1 (stereo partly specified) | 14.8 | 19.5 | 15.2 | 20.7 | 
4 | CCOP(=O)(OCC)C(NC(=S)NC(=O)[C@]1(C)CCC[C@]2(C)c3ccc(C(C)C)cc3CC[C@@H]12)c1ccccc1F (stereo partly specified) | 17.8 | 14 | 11.4 | 10 | 
5 | CCOP(=O)(OCC)C(NC(=S)NC(=O)[C@]1(C)CCC[C@]2(C)c3ccc(C(C)C)cc3CC[C@@H]12)c1cccc(F)c1 (stereo partly specified) | 27.5 | 24.4 | 31.6 | 13.7 | 
6 | CCOP(=O)(OCC)C(NC(=S)NC(=O)[C@]1(C)CCC[C@]2(C)c3ccc(C(C)C)cc3CC[C@@H]12)c1ccc(F)cc1 (stereo partly specified) | 4.39 | 23.4 | 10.3 | 13.5 | 
7 | CCOP(=O)(OCC)C(NC(=S)NC(=O)[C@]1(C)CCC[C@]2(C)c3ccc(C(C)C)cc3CC[C@@H]12)c1ccccc1Br (stereo partly specified) | 18.6 | 22.2 | 27.1 | 17.4 | 
8 | CCOP(=O)(OCC)C(NC(=S)NC(=O)[C@]1(C)CCC[C@]2(C)c3ccc(C(C)C)cc3CC[C@@H]12)c1ccccc1 (stereo partly specified) | 28.1 | 24.2 | 15.2 | 12.1 | 
9 | CCOP(=O)(OCC)C(NC(=S)NC(=O)[C@]1(C)CCC[C@]2(C)c3ccc(C(C)C)cc3CC[C@@H]12)c1cccc2ccccc12 (stereo partly specified) | 32.6 | 28.3 | > 50 | 19.1 | 
10 | CCOP(=O)(OCC)C(NC(=S)NC(=O)[C@]1(C)CCC[C@]2(C)c3ccc(C(C)C)cc3CC[C@@H]12)c1ccccc1Cl (stereo partly specified) | 30.7 | 19.6 | 24.9 | 15.3 | 
11 | CCOP(=O)(OCC)C(NC(=S)NC(=O)[C@]1(C)CCC[C@]2(C)c3ccc(C(C)C)cc3CC[C@@H]12)c1cccc(OC)c1 (stereo partly specified) | 15.8 | 29.6 | 18 | 9.96 | 
12 | CCOP(=O)(OCC)C(NC(=S)NC(=O)[C@]1(C)CCC[C@]2(C)c3ccc(C(C)C)cc3CC[C@@H]12)c1ccc(Cl)cc1 (stereo partly specified) | 19.7 | 12.7 | 26.5 | 14.5 | 
13 | CCOP(=O)(OCC)C(NC(=S)NC(=O)[C@]1(C)CCC[C@]2(C)c3ccc(C(C)C)cc3CC[C@@H]12)c1ccc2ccccc2c1 (stereo partly specified) | 22.7 | 45.7 | > 50 | > 50 | 
14 | O=c1[nH]cc(F)c(=O)[nH]1 [FLUOROURACIL] |  |  | 30 |  | Activity (NCI-H460 [2]): 28.07%; Activity (NCI-H460 [3]): 0%; Activity (NCI-H460 [4]): 71.93%; Activity (NCI-H460 [5]): 16.8%; Activity (NCI-H460 [6]): 6.5%; Activity (NCI-H460 [7]): Active
15 | CCOP(=O)(OCC)C(NC(=S)NC(=O)[C@]1(C)CCC[C@]2(C)c3ccc(C(C)C)cc3CC[C@@H]12)c1cccc(Cl)c1 (stereo partly specified) | 36.4 | 26.4 | > 50 | 19.7 | 
16 | CCOP(=O)(OCC)C(NC(=S)NC(=O)[C@]1(C)CCC[C@]2(C)c3ccc(C(C)C)cc3CC[C@@H]12)c1cccc(C)c1 (stereo partly specified) | 17.8 | 18.8 | 37.3 | 16.6 | 
17 | CCOP(=O)(OCC)C(NC(=S)NC(=O)[C@]1(C)CCC[C@]2(C)c3ccc(C(C)C)cc3CC[C@@H]12)c1ccc(Br)cc1 (stereo partly specified) | 18.7 | 20.2 | 24 | 14 | 
18 | CCOP(=O)(OCC)C(NC(=S)NC(=O)[C@]1(C)CCC[C@]2(C)c3ccc(C(C)C)cc3CC[C@@H]12)c1ccccc1OC (stereo partly specified) | 3.33 | 18.4 | 7.7 | 18.9 | Activity (NCI-H460 [2]): 23.49%; Activity (NCI-H460 [3]): 13.7%; Activity (NCI-H460 [4]): 62.8%; Activity (NCI-H460 [8]): 51.5%; Activity (NCI-H460 [9]): 19.5%; Activity (NCI-H460 [10]): Dose-dependent effect; Activity (NCI-H460 [11]): 35.3%; Activity (NCI-H460 [12]): 16.2%; Activity (NCI-H460 [13]): 14.3%; Activity (NCI-H460 [14]): 5.2%; Activity (NCI-H460 [15]): Active; Activity (NCI-H460 [16]): Active; Activity (NCI-H460 [17]): Non-toxic; Activity (NCI-H460 [18]): Active; Activity (NCI-H460 [19]): Active; Activity (NCI-H460 [20]): Active
